Results taken from ChEMBL document CHEMBL1201862, “PubChem BioAssay data set” (2004).
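Following 48 hours of exposure in 96-well plates, responses at five concentrations were used to interpolate endpoints linearly. GI50 marks 50% less growth.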 Active and inactive are the calls of the source. Rule as the data show it: active = GI50 up to about 1.1 µM and inactive = higher.

Assays:
Assay in all cases: NCI tumour cell line growth inhibition, 48 h
SK-MEL-2 = test system: SK-MEL-2
CAKI-1 = test system: CAKI-1
SK-OV-3 = test system: SK-OV-3
PC-3 = test system: PC-3
NCI-H23 = test system: NCI-H23
A498 = test system: A498
SF-295 = test system: SF-295
RPMI-8226 = test system: RPMI-8226
MOLT-4 = test system: MOLT-4
NCI/ADR-RES = test system: NCI/ADR-RES
UACC-62 = test system: UACC-62
SF-268 = test system: SF-268
SK-MEL-5 = test system: SK-MEL-5
HL-60 = test system: HL-60
U-251 = test system: U-251
UACC-257 = test system: UACC-257
HT-29 = test system: HT-29
IGROV-1 = test system: IGROV-1
ACHN = test system: ACHN
OVCAR-5 = test system: OVCAR-5

Measured: GI50

NNC(=O)c1ccc(OCc2nc3ccccc3[nH]2)cc1
inactive: SK-MEL-2 > 100 µM | CAKI-1 > 100 µM | SK-OV-3 > 100 µM | PC-3 > 100 µM | NCI-H23 > 100 µM | A498 > 100 µM | SF-295 > 100 µM | RPMI-8226 55.6 µM | MOLT-4 14.8 µM | NCI/ADR-RES > 100 µM | UACC-62 > 100 µM | SF-268 89.3 µM | SK-MEL-5 27.9 µM | HL-60 43.7 µM | U-251 > 100 µM | UACC-257 66.4 µM | HT-29 > 100 µM | IGROV-1 > 100 µM | ACHN > 100 µM | OVCAR-5 > 100 µM

COc1cc(/C=C2\N=C(c3ccccc3)N(c3ccc(S(=O)(=O)Nc4nccs4)cc3)C2=O)ccc1O
inactive: SK-MEL-2 > 100 µM | CAKI-1 > 100 µM | SK-OV-3 > 100 µM | PC-3 82.6 µM | NCI-H23 > 100 µM | A498 > 100 µM | SF-295 > 100 µM | RPMI-8226 45 µM | MOLT-4 > 100 µM | NCI/ADR-RES > 100 µM | UACC-62 43.9 µM | SF-268 51.9 µM | SK-MEL-5 75.9 µM | HL-60 51.2 µM | U-251 75.5 µM | UACC-257 > 100 µM | HT-29 59.7 µM | IGROV-1 > 100 µM | ACHN > 100 µM | OVCAR-5 > 100 µM

COc1cc(/C=N/N=C(\N)NO)cc(OC)c1OC
inactive: SK-MEL-2 54.3 µM | CAKI-1 72.4 µM | SK-OV-3 67.8 µM | PC-3 44.6 µM | NCI-H23 38.2 µM | A498 46.3 µM | SF-295 25.2 µM | RPMI-8226 37.2 µM | MOLT-4 40.6 µM | NCI/ADR-RES 15.7 µM | UACC-62 13.5 µM | SF-268 31.1 µM | SK-MEL-5 20.6 µM | HL-60 23 µM | U-251 52.2 µM | UACC-257 43.1 µM | HT-29 22.8 µM | IGROV-1 42.7 µM | ACHN 21.5 µM | OVCAR-5 49.5 µM

Fc1c(F)c(F)c2c(c1F)CSc1nc3ccccc3n1-2
inactive: SK-MEL-2 > 100 µM | CAKI-1 > 100 µM | SK-OV-3 > 100 µM | PC-3 > 100 µM | NCI-H23 > 100 µM | A498 > 100 µM | SF-295 > 100 µM | RPMI-8226 > 100 µM | MOLT-4 > 100 µM | NCI/ADR-RES > 100 µM | UACC-62 > 100 µM | SF-268 > 100 µM | SK-MEL-5 > 100 µM | HL-60 > 100 µM | U-251 > 100 µM | UACC-257 > 100 µM | HT-29 > 100 µM | IGROV-1 > 100 µM | ACHN > 100 µM | OVCAR-5 > 100 µM

Cn1c2c(c3ccccc31)CC(=O)N1CCCC(C1)CC21OCCO1 (stereo not given)
inactive: SK-MEL-2 > 100 µM | CAKI-1 > 100 µM | SK-OV-3 > 100 µM | PC-3 > 100 µM | NCI-H23 > 100 µM | A498 > 100 µM | SF-295 > 100 µM | RPMI-8226 > 100 µM | MOLT-4 > 100 µM | NCI/ADR-RES > 100 µM | UACC-62 > 100 µM | SF-268 > 100 µM | SK-MEL-5 > 100 µM | HL-60 > 100 µM | U-251 > 100 µM | UACC-257 > 100 µM | HT-29 > 100 µM | IGROV-1 > 100 µM | ACHN > 100 µM | OVCAR-5 > 100 µM

COc1ccccc1C(=O)Nc1ccc(Cl)c(C(=O)OC(C)C)c1
inactive: SK-MEL-2 31.8 µM | CAKI-1 > 67 µM | SK-OV-3 99.5 µM | PC-3 83.2 µM | NCI-H23 13.5 µM | A498 > 50.9 µM | SF-295 36.6 µM | RPMI-8226 18.3 µM | MOLT-4 > 45.8 µM | NCI/ADR-RES 16.4 µM | UACC-62 25.9 µM | SF-268 > 50.6 µM | SK-MEL-5 31.8 µM | HL-60 > 41.1 µM | U-251 43 µM | UACC-257 30.5 µM | HT-29 27.4 µM | IGROV-1 > 66.8 µM | ACHN 16 µM | OVCAR-5 > 50 µM

CCOC1=NC(C(F)(F)F)(C(F)(F)F)N=C(/N=C(/N)N(C)C(C(C)C)P(=O)(OC(C)C)OC(C)C)O1 (stereo not given)
inactive: SK-MEL-2 91.4 µM | CAKI-1 > 100 µM | SK-OV-3 > 100 µM | PC-3 > 100 µM | NCI-H23 95.3 µM | A498 > 100 µM | SF-295 83.8 µM | RPMI-8226 45.9 µM | MOLT-4 20.1 µM | NCI/ADR-RES 31.3 µM | UACC-62 54.7 µM | SF-268 48.4 µM | SK-MEL-5 59.8 µM | HL-60 27.7 µM | U-251 64.9 µM | UACC-257 70.3 µM | HT-29 > 100 µM | IGROV-1 69.8 µM | ACHN 44.7 µM | OVCAR-5 > 100 µM

CC1=NN(c2nc(N)nc(CSCc3nc(N)nc(N(C)C)n3)n2)C(C)(C)C1
inactive: SK-MEL-2 > 100 µM | CAKI-1 > 100 µM | SK-OV-3 > 100 µM | PC-3 > 100 µM | NCI-H23 > 100 µM | A498 > 100 µM | SF-295 > 100 µM | RPMI-8226 > 100 µM | MOLT-4 > 100 µM | NCI/ADR-RES > 100 µM | UACC-62 > 100 µM | SF-268 > 100 µM | SK-MEL-5 > 100 µM | HL-60 > 100 µM | U-251 > 100 µM | UACC-257 > 100 µM | HT-29 > 100 µM | IGROV-1 > 100 µM | ACHN > 100 µM | OVCAR-5 > 100 µM

CC(C)(C)OC(=O)NCC(=O)N(CCc1ccc(Cl)c(Cl)c1)CCN1CCCC1
inactive: SK-MEL-2 16.9 µM | CAKI-1 18.4 µM | SK-OV-3 14.9 µM | PC-3 15.3 µM | NCI-H23 17.1 µM | A498 17.8 µM | SF-295 17.3 µM | RPMI-8226 5.01 µM | MOLT-4 8.41 µM | NCI/ADR-RES 15.3 µM | UACC-62 17.4 µM | SF-268 15.3 µM | SK-MEL-5 13.7 µM | HL-60 12.1 µM | U-251 15.2 µM | UACC-257 15.7 µM | HT-29 6.32 µM | IGROV-1 15.8 µM | ACHN 19.5 µM | OVCAR-5 18.9 µM

COc1ccc(OC)c2sc(N3C(=O)/C(=C/c4cccc([N+](=O)[O-])c4)N=C3c3ccccc3)nc12
inactive: SK-MEL-2 69 µM | CAKI-1 > 100 µM | SK-OV-3 50.6 µM | PC-3 59.7 µM | NCI-H23 86.7 µM | A498 57.8 µM | SF-295 51.8 µM | RPMI-8226 22.5 µM | MOLT-4 21.8 µM | NCI/ADR-RES 56 µM | UACC-62 36.4 µM | SF-268 57.5 µM | SK-MEL-5 49.4 µM | HL-60 20.8 µM | U-251 32 µM | UACC-257 38.3 µM | HT-29 > 100 µM | IGROV-1 43.4 µM | ACHN 99.8 µM | OVCAR-5 > 100 µM

CSc1nc(-c2ccc(C)cc2)c(C#N)c(=O)[nH]1
inactive: SK-MEL-2 > 100 µM | CAKI-1 > 100 µM | SK-OV-3 > 100 µM | PC-3 > 100 µM | NCI-H23 > 100 µM | A498 > 100 µM | SF-295 > 100 µM | RPMI-8226 > 100 µM | MOLT-4 > 100 µM | NCI/ADR-RES > 100 µM | UACC-62 > 100 µM | SF-268 > 100 µM | SK-MEL-5 > 100 µM | HL-60 > 100 µM | U-251 > 100 µM | UACC-257 > 100 µM | HT-29 > 100 µM | IGROV-1 > 100 µM | ACHN > 100 µM | OVCAR-5 > 100 µM

O=C1C=CC(O)(C#CCO)C=C1
inactive: SK-MEL-2 17.4 µM | CAKI-1 4.02 µM | SK-OV-3 58.1 µM | PC-3 16.9 µM | NCI-H23 16.9 µM | A498 22.4 µM | SF-295 39.3 µM | RPMI-8226 3.74 µM | MOLT-4 10.3 µM | NCI/ADR-RES 6.73 µM | UACC-62 15.6 µM | SF-268 17.6 µM | SK-MEL-5 24.3 µM | HL-60 3.17 µM | U-251 11.6 µM | UACC-257 14.6 µM | HT-29 14.3 µM | IGROV-1 13 µM | ACHN 13.2 µM | OVCAR-5 12.1 µM

C#C[C@]1(O)CC[C@H]2[C@@H]3CCC4=C/C(=N\OCCN5CCCCC5)CC[C@]4(C)[C@H]3CC[C@@]21C
inactive: SK-MEL-2 2.77 µM | CAKI-1 6.21 µM | SK-OV-3 16 µM | PC-3 3.39 µM | NCI-H23 3.83 µM | A498 6.15 µM | SF-295 3.56 µM | RPMI-8226 2.43 µM | MOLT-4 3.9 µM | NCI/ADR-RES 3.52 µM | UACC-62 3.32 µM | SF-268 6.44 µM | SK-MEL-5 2.23 µM | HL-60 3.19 µM | U-251 9.68 µM | UACC-257 3.98 µM | HT-29 6.67 µM | IGROV-1 7.18 µM | ACHN 8.3 µM | OVCAR-5 13.5 µM

C=CCOC1=C(OC(C)=O)C(C2COC(C)(C)O2)OC1=O (stereo not given)
inactive: SK-MEL-2 35.6 µM | CAKI-1 1.95 µM | SK-OV-3 > 100 µM | PC-3 70 µM | NCI-H23 17.8 µM | A498 > 100 µM | SF-295 36 µM | RPMI-8226 22.1 µM | MOLT-4 21.6 µM | NCI/ADR-RES 31.5 µM | UACC-62 22.2 µM | SF-268 31.6 µM | SK-MEL-5 16.9 µM | HL-60 19.6 µM | U-251 26.5 µM | UACC-257 18.2 µM | HT-29 19.9 µM | IGROV-1 31.6 µM | ACHN 17.9 µM | OVCAR-5 17.5 µM
